Laboratory results taken from patent US20240041870A1, “METHODS OF TREATING SYSTEMIC LUPUS ERYTHEMATOSUS” (AbbVie Inc., priority 2022, published 2024).

Key:
[1] = Upadacitinib pharmacokinetics in Study M19-130 (model-estimated steady-state exposure); assay type: in vivo, human; conditions: 30 mg QD; subjects with SLE; plasma
Text: Upadacitinib plasma concentrations were summarized at each sampling time point using descriptive statistics. A mixed-effects modeling approach may have been used to estimate the population central value and the empirical Bayesian estimates of the individual values for upadacitinib oral clearance (CL/F) and volume of distribution (Vss/F). Additional parameters and pharmacokinetic (PK)/pharmacodynamic relationships may have been estimated if useful in the interpretation of the data.
The model-estimated median ([…]) steady-state (SS) Cavg in subjects with SLE was 28.4 (19.1-46.6) ng/mL for upadacitinib 30 mg QD.

[2] = tested on: subjects with moderately to severely active SLE; assay: Phase 2 Study M19-130: safety and efficacy of upadacitinib vs placebo, 48-week treatment period; assay type: in vivo, human
Text: This was a Phase 2 Study (M19-130) to Investigate the Safety and Efficacy of Upadacitinib Given in Subjects with Moderately to Severely Active Systemic Lupus Erythematosus.
Subjects must have had active SLE by SLEDAI-2K ≥6 as reported and independently adjudicated (clinical score ≥4, excluding lupus headache and/or organic brain syndrome) at Screening and Baseline. If 4 points of the required entry points were for arthritis, there must also have been a minimum of 3 tender and 3 swollen joints.
The primary efficacy endpoint was achievement of SLE Responder Index (SRI)-4 and steroid dose ≤10 mg prednisone equivalent once a day (QD) at Week 24. SLE Responder Index (SRI)-4 is defined as ≥4-point reduction in Systemic Lupus Erythematosus Disease Activity Index 2000 (SLEDAI-2K) score without worsening of the overall condition (no worsening in Physician's Global Assessment [PhGA], <0.3 point increase) or the development of significant disease activity in new organ systems (no new British Isles Lupus Assessment Group ([BILAG]) A or >1 new BILAG B).
The following secondary efficacy endpoints were evaluated: • 1. Achievement of SRI-4 at Week 24 • 2. Achievement of BILAG-Based Combined Lupus Assessment (BICLA) response at Week 24 • 3. Achievement of Lupus Low Disease Activity State (LLDAS) at Week 24 • 4. Steroid burden, assessed as change from Baseline at Week 24 • 5. Number of mild, moderate, or severe flares per patient-year (respectively and overall) by Safety of Estrogens in Lupus Erythematosus National Assessment (SELENA) SLEDAI Flare Index (SFI), assessed by number and types of flare per subject through Week 24
The following additional efficacy endpoints were evaluated at all visits unless otherwise noted: • 1. Achievement of SRI-4 • 2. Achievement of SRI-5, -6, -7, -8 and steroid dose ≤10 mg prednisone equivalent QD at Weeks 24 and 48 • 3. Achievement of SRI-5, -6, -7, -8 • 4. Achievement of BICLA response • 5. Achievement of LLDAS • 6. Achievement of ≥4-point decrease in SLEDAI-2K from Baseline • 7. Steroid burden, assessed as change from Baseline • 8. Number of mild, moderate, or severe flares per patient-year (respectively and overall) by SELENA SFI, assessed by number and types of flare per subject through Week 24 and Week 48 • 9. Time to first flare by SELENA SFI after first study drug administration up to Week 24 and Week 48 • 10. Achievement of 50% reduction of tender or swollen lupus joints defined as ≥50% decrease in either tender or swollen joints (of those starting with total ≥6 affected joints) • 11. Achievement of 50% reduction in Cutaneous Lupus Erythematosus Disease Area and Severity Index (CLASI) activity score (of those starting with CLASI ≥10) • 12. Change in SLEDAI-2K from Baseline • 13. Change in BILAG from Baseline • 14. Change in PhGA from Baseline • 15. Change in Patient Global Assessment (PtGA) from Baseline • 16. Change from Baseline in Functional Assessment of Chronic Illness Therapy (FACIT)—Fatigue at Weeks 2, 12, 24, and 48 • 17. Change from Baseline in 36-Item Short Form Health Survey (SF-36) at Weeks 2, 12, 24, and 48 • 18. Change from Baseline Lupus Quality of Life questionnaire (LupusQoL) at Weeks 2, 12, 24, and 48 • 19. Change from Baseline Pain Numerical Rating Scale (NRS) at Weeks 2, 12, 24, and 48
The study was designed to investigate the safety and efficacy of upadacitinib in subjects with moderately to severely active SLE despite standard of care therapy. The study duration included a 42-day maximum screening period, a 48-week randomized, placebo-controlled, double-blind, parallel-group treatment period, and a 30-day follow-up phone call. The Week 24 Primary Analysis was performed when all subjects completed the Week 24 visit or discontinued the study. Sites and subjects remained blinded throughout the study. The study team remained blinded until the Week 24 Primary Analysis. […]

[3] = 30 mg QD oral, N = 62, Week 24 interim analysis (Example 1)
[4] = 30 mg QD oral, N = 62, Week 24 interim analysis (Example 1), listed as UPA
[5] = 30 mg QD oral, N = 62, final database (Example 2)
[6] = 30 mg QD oral, N = 62, full analysis set, Week 24 interim analysis (Example 1)
[7] = 30 mg QD oral, final database (Example 2)
[8] = 30 mg QD vs PBO (N = 75), stratum-adjusted, final database (Example 2)
[9] = 30 mg QD, N = 62, subject disposition, Week 24 interim analysis

With `CC[C@@H]1CN(C(=O)NCC(F)(F)F)C[C@@H]1c1cnc2cnc3[nH]ccc3n12` [Upadacitinib, (3S,4R)-3-ethyl-4-(3H-imidazo[1,2-a]pyrrolo[2,3-e]pyrazin-8-yl)-N-(2,2,2-trifluoroethyl)pyrrolidine-1-carboxamide] the “model-estimated median (prediction interval) steady-state (SS) Cavg” value [1] was 28.4 (19.1-46.6) ng/mL, the “Prednisone Equivalent Steroid Dose; Week 48; LS Mean Change (SE)” value ([2]; 30 mg QD oral, N = 38, final database (Example 2)) was −1.20 (0.524) and the “Prednisone Equivalent Steroid Dose at Week 24; LS Mean Change (SE)” value ([2]; 30 mg QD oral, N = 48, change from Baseline, Week 24 interim analysis (Example 1)) was −0.64 (0.486). The “Prednisone Equivalent Steroid Dose; Week 24; LS Mean Change (SE)” value ([2]; 30 mg QD oral, N = 48, final database (Example 2)) was −0.62 (0.496), the “BICLA at Week 24; %” value [2, 3] was 58.1% and the “BICLA at Week 24; n” value [2, 3] was 36 n. For the same compound, the “Flares per SELENA SLEDAI Flare Index through Week 24; Any flares” value [2, 3] was 1.73 Events/PY, the “Flares per SELENA SLEDAI Flare Index through Week 24; Mild/Moderate” value [2, 3] was 1.66 Events/PY and the “Flares per SELENA SLEDAI Flare Index through Week 24; Severe” value [2, 3] was 0.07 Events/PY. The “LLDAS at Week 24; %” value [2, 3] was “(43.5) %”, the “LLDAS at Week 24; n” value [2, 3] was 27 n and the “SRI-4 at Week 24; %” value [2, 3] was 53.6%. For the same compound, the “SRI-4 at Week 24; n” value [2, 3] was 33 n, the “BICLA at Week 24; %” value [2, 4] was “(58.1) %” and the “SRI-4 at Week 24; %” value [2, 4] was “(53.2) %”. The “BICLA; Week 24; %” value [2, 5] was “(58.1) %”, the “BICLA; Week 24; n” value [2, 5] was 36 n and the “BICLA; Week 48; %” value [2, 5] was “(53.2) %”. The “BICLA; Week 48; n” value [2, 5] was 33 n, the “Flares per SELENA SLEDAI Flare Index Through Week 48; Any flares” value [2, 5] was 2.04 Events/PY and the “Flares per SELENA SLEDAI Flare Index Through Week 48; Mild/Moderate” value [2, 5] was 1.88 Events/PY. The “Flares per SELENA SLEDAI Flare Index Through Week 48; Severe” value [2, 5] was 0.16 Events/PY, the “Flares per SELENA SLEDAI Flare Index through Week 24; Any flares” value [2, 5] was 1.87 Events/PY and the “Flares per SELENA SLEDAI Flare Index through Week 24; Mild/Moderate” value [2, 5] was 1.76 Events/PY. For the same compound, the “Flares per SELENA SLEDAI Flare Index through Week 24; Severe” value [2, 5] was 0.10 Events/PY, the “LLDAS; Week 24; %” value [2, 5] was “(45.2) %” and the “LLDAS; Week 24; n” value [2, 5] was 28 n. For the same compound, the “LLDAS; Week 48; %” value [2, 5] was “(50.0) %”, the “LLDAS; Week 48; n” value [2, 5] was 31 n and the “SRI-4; Week 24; %” value [2, 5] was “(56.5) %”. For the same compound, the “SRI-4; Week 24; n” value [2, 5] was 35 n, the “SRI-4; Week 48; %” value [2, 5] was 45.2% and the “SRI-4; Week 48; n” value [2, 5] was 28 n. The “SRI-4 and Prednisone Equivalent Steroid Dose ≤10 mg; Week 24; %” value [2, 5] was “(54.8) %”, the “SRI-4 and Prednisone Equivalent Steroid Dose ≤10 mg; Week 48; %” value [2, 5] was “(43.5) %” and the “SRI-4 and Prednisone Equivalent Steroid Dose ≤10 mg; Week 48; n” value [2, 5] was 27 n. The “SRI-4; Week 48; %” value ([2]; 30 mg QD oral, N = 62, final database (Example 2), listed as UPA) was “(45.2) %”, the “SRI-4 and Prednisone Equivalent Steroid Dose ≤10 mg at Week 24; %” value [2, 6] was 51.6% and the “SRI-4 and Prednisone Equivalent Steroid Dose ≤10 mg at Week 24; n” value [2, 6] was 32 n. For the same compound, the “SRI-4 and Prednisone Equivalent Steroid Dose ≤10 mg at Week 24; %” value ([2]; 30 mg QD oral, N = 62, full analysis set, Week 24 interim analysis (Example 1), listed as UPA) was “(51.6) %”, the “SRI-4 and Prednisone Equivalent Steroid Dose ≤10 mg; Week 24; n” value ([2]; 30 mg QD oral, N = 62, full analysis set, final database (Example 2)) was 34 n and the “50% Reduction of Tender or Swollen Lupus Joints among Subjects with Total >=6 Affected Joints; Week 24; %” value [2, 7] was “(67.8) %”. For the same compound, the “50% Reduction of Tender or Swollen Lupus Joints among Subjects with Total >=6 Affected Joints; Week 24; n” value [2, 7] was 40/59, the “50% Reduction of Tender or Swollen Lupus Joints among Subjects with Total >=6 Affected Joints; Week 48; %” value [2, 7] was “(57.6) %” and the “50% Reduction of Tender or Swollen Lupus Joints among Subjects with Total >=6 Affected Joints; Week 48; n” value [2, 7] was 34/59. The “BICLA; Week 48; Adj. Diff (−PBO) [95% CI]” value [2, 8] was 30.8, the “SRI-4; Week 48; Adj. Diff (−PBO) [95% CI]” value [2, 8] was 30.4 and the “SRI-4 and Steroid Dose ≤10 mg prednisone equivalent QD; stratum-adjusted treatment difference” value ([2]; 30 mg QD vs placebo, Week 24, Example 1) was 14.0%. For the same compound, the “Discontinued from the Study Drug (All Reasons): Adverse event; %” value [2, 9] was 9.7%, the “Discontinued from the Study Drug (All Reasons): Adverse event; n” value [2, 9] was 6 n and the “Discontinued from the Study Drug (Primary Reasons): Adverse event; %” value [2, 9] was 8.1%. For the same compound, the “Discontinued from the Study Drug (Primary Reasons): Adverse event; n” value [2, 9] was 5 n, the “Withdrawal from the Study (All Reasons): Adverse event; %” value [2, 9] was 6.5% and the “Withdrawal from the Study (All Reasons): Adverse event; n” value [2, 9] was 4 n. For the same compound, the “Withdrawal from the Study (Primary Reasons): Adverse event; %” value [2, 9] was 4.8%, the “Withdrawal from the Study (Primary Reasons): Adverse event; n” value [2, 9] was 3 n and the “response rate in BICLA after Week 24” value ([2]; 30 mg, Week 24 to Week 48) was “generally maintained”. For the same compound, the “response rate in SRI-4 after Week 24” value ([2]; 30 mg, Week 24 to Week 48) was “generally maintained”, the “flare compared to placebo” value ([2]; 30 mg, over 48 weeks) was “reductions in flare” and the “time-to-first flare compared to placebo” value ([2]; 30 mg, over 48 weeks) was “delays in time-to-first flare”. For the same compound, the “LLDAS at Week 24 compared with placebo” value ([2]; 30 mg, p<0.001, Example 1) was “greater efficacy than placebo”, the “flare rate through Week 24 compared with placebo” value ([2]; 30 mg, p=0.075, Example 1) was “lower flare rate” and the response rate for achievement of BICLA at Week 48 ([2]; 30 mg, text of Example 2) was 53.2%.
